Experimental data from ChEMBL document CHEMBL3784982, “Novel dihydropyrazole-chromen: Design and modulates hTERT inhibition proliferation of MGC-803” (Eur J Med Chem, 2016).
pIC50: −log10 of the molar value. Calls of active or inactive are those of the source. The calls are words filed in the database; no cut-off is given here.

How the values were obtained:
[1] = Antiproliferative activity against human SGC7901 cells after 48 hrs by MTT assay; format: functional, cell-based; settings: SGC-7901, 48 h
Bcap37 = experiment: Antiproliferative activity against human Bcap37 cells after 48 hrs by MTT assay; format: functional, cell-based; settings: Bcap37, 48 h
[2] = Antiproliferative activity against human MGC803 cells after 48 hrs by MTT assay; format: functional, cell-based; settings: MGC-803, 48 h
[3] = Antiproliferative activity against human PC3 cells after 48 hrs by MTT assay; format: functional, cell-based; settings: PC-3, 48 h
[4] = biological target: Telomerase reverse transcriptase (Homo sapiens) (UniProt O14746); experiment: Inhibition of human TERT protein expression in human MGC803 cells at […] after 48 hrs by Western blotting method; format: cell-based; settings: MGC-803
Chain of Telomerase reverse transcriptase (Homo sapiens) (O14746 whole entry): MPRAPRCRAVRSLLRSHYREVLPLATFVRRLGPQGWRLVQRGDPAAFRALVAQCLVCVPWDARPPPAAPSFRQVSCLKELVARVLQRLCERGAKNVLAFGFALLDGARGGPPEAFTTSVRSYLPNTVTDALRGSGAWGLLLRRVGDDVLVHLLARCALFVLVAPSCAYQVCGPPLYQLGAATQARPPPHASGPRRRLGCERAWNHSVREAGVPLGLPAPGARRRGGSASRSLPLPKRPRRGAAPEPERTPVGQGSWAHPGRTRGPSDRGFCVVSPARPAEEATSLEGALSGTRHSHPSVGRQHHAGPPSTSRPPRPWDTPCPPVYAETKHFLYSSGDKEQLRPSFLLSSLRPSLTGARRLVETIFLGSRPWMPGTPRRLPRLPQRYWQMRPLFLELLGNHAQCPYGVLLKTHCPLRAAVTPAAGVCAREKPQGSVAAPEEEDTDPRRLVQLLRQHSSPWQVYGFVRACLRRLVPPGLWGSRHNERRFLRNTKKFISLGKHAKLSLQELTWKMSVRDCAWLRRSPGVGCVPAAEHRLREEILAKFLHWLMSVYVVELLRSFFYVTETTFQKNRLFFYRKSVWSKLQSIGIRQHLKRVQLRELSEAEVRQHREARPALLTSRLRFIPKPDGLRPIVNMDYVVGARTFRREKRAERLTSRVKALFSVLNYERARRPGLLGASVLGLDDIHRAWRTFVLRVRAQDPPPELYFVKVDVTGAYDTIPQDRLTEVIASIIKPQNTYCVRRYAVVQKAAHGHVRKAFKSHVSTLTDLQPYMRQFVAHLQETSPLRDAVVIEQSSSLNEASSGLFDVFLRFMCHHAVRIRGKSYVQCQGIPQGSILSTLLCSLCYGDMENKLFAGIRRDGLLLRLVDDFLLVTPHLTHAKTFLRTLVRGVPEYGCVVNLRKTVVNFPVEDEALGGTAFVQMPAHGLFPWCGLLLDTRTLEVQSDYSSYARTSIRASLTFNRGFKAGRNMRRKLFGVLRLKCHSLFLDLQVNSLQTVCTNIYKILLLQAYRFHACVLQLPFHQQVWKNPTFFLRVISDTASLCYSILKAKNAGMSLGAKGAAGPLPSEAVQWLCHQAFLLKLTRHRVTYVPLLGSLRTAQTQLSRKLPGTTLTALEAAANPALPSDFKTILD

[5] = biological target: Telomerase reverse transcriptase (Homo sapiens) (UniProt O14746); experiment: Inhibition of human TERT-regulated Wnt/beta-catenin signalling in human MGC803 cells assessed as decrease in beta-catenin protein expression at […] after 48 hrs by Western blotting method; format: cell-based; settings: MGC-803
[6] = biological target: Telomerase reverse transcriptase (Homo sapiens) (UniProt O14746); experiment: Inhibition of human TERT-regulated Wnt/beta-catenin signalling in human MGC803 cells assessed as decrease in cyclin D1 protein expression at […] after 48 hrs by Western blotting method; format: cell-based; settings: MGC-803
[7] = biological target: Telomerase reverse transcriptase (Homo sapiens) (UniProt O14746); experiment: Inhibition of human TERT-regulated Wnt/beta-catenin signalling in human MGC803 cells assessed as decrease in c-myc protein expression at […] after 48 hrs by Western blotting method; format: cell-based; settings: MGC-803
[8] = biological target: Telomerase reverse transcriptase (Homo sapiens) (UniProt O14746); experiment: Inhibition of human TERT-regulated Wnt/beta-catenin signalling in human MGC803 cells assessed as decrease in c-myc mRNA expression at […] after 48 hrs by RT-PCR method; format: cell-based; settings: MGC-803
[9] = biological target: Telomerase reverse transcriptase (Homo sapiens) (UniProt O14746); experiment: Inhibition of human TERT-regulated Wnt/beta-catenin signalling in human MGC803 cells assessed as decrease in cyclin-D1 mRNA expression at […] after 48 hrs by RT-PCR method; format: cell-based; settings: MGC-803
[10] = biological target: Telomerase reverse transcriptase (Homo sapiens) (UniProt O14746); experiment: Inhibition of human TERT-regulated Wnt/beta-catenin signalling in human MGC803 cells assessed as decrease in beta-catenin mRNA expression at […] after 48 hrs by RT-PCR method; format: cell-based; settings: MGC-803
[11] = Inhibition of human TERT mRNA expression in human MGC803 cells at […] after 48 hrs by RT-PCR method; format: functional, cell-based; settings: MGC-803
MGC-803 = experiment: Induction of cell cycle arrest in human MGC803 cells assessed as accumulation at G0/G1 phase at 1 uM after 48 hrs by propidium iodide staining-based flow cytometry (reference value: 32.7%); format: functional
[12] = biological target: Telomerase reverse transcriptase (Homo sapiens) (UniProt O14746); experiment: Inhibition of human TERT protein expression in human MGC803 cells at 1 uM after 48 hrs by Western blotting method; format: cell-based; settings: MGC-803
[13] = Cytotoxicity against human GES-1 cells after 48 hrs by MTT assay; format: cell-based; settings: GES1, 48 h
[14] = Cytotoxicity against human L02 cells after 48 hrs by MTT assay; format: cell-based; settings: L02, 48 h
[15] = biological target: Telomerase reverse transcriptase (Homo sapiens) (UniProt O14746); experiment: Inhibition of human TERT-regulated Wnt/beta-catenin signalling in human MGC803 cells assessed as downregulation of beta-catenin protein expression after 48 hrs by Western blotting method; format: cell-based; settings: MGC-803
[16] = biological target: Telomerase reverse transcriptase (Homo sapiens) (UniProt O14746); experiment: Inhibition of human TERT-regulated Wnt/beta-catenin signalling in human MGC803 cells assessed as downregulation of beta-catenin mRNA expression by RT-PCR method; format: cell-based; settings: MGC-803
[17] = biological target: Telomerase reverse transcriptase (Homo sapiens) (UniProt O14746); experiment: Inhibition of human TERT-regulated Wnt/beta-catenin signalling in human MGC803 cells assessed as downregulation of cyclin D1 protein expression after 48 hrs by Western blotting method; format: cell-based; settings: MGC-803
[18] = biological target: Telomerase reverse transcriptase (Homo sapiens) (UniProt O14746); experiment: Inhibition of human TERT-regulated Wnt/beta-catenin signalling in human MGC803 cells assessed as downregulation of cyclin D1 mRNA expression by RT-PCR method; format: cell-based; settings: MGC-803
[19] = biological target: Telomerase reverse transcriptase (Homo sapiens) (UniProt O14746); experiment: Inhibition of human TERT-regulated Wnt/beta-catenin signalling in human MGC803 cells assessed as downregulation of c-myc protein expression after 48 hrs by Western blotting method; format: cell-based; settings: MGC-803
[20] = biological target: Telomerase reverse transcriptase (Homo sapiens) (UniProt O14746); experiment: Inhibition of human TERT-regulated Wnt/beta-catenin signalling in human MGC803 cells assessed as downregulation of c-myc mRNA expression by RT-PCR method; format: cell-based; settings: MGC-803
[21] = biological target: Telomerase reverse transcriptase (Homo sapiens) (UniProt O14746); experiment: Inhibition of human TERT expressed in human MGC803 cells assessed as TERT-regulated Wnt/beta-catenin signalling by measuring decrease in beta-catenin protein expression after 48 hrs by Western blotting method; format: cell-based; settings: MGC-803
[22] = biological target: Telomerase reverse transcriptase (Homo sapiens) (UniProt O14746); experiment: Inhibition of human TERT expressed in human MGC803 cells assessed as TERT-regulated Wnt/beta-catenin signalling by measuring decrease in c-myc protein expression after 48 hrs by Western blotting method; format: cell-based; settings: MGC-803
[23] = biological target: Telomerase reverse transcriptase (Homo sapiens) (UniProt O14746); experiment: Inhibition of human TERT expressed in human MGC803 cells assessed as TERT-regulated Wnt/beta-catenin signalling by measuring decrease in cyclin D1 protein expression after 48 hrs by Western blotting method; format: cell-based; settings: MGC-803
[24] = biological target: Telomerase reverse transcriptase (Homo sapiens) (UniProt O14746); experiment: Inhibition of human TERT expressed in human MGC803 cells assessed as TERT-regulated Wnt/beta-catenin signalling by measuring decrease in beta-catenin mRNA expression after 48 hrs by RT-PCR method; format: cell-based; settings: MGC-803
[25] = biological target: Telomerase reverse transcriptase (Homo sapiens) (UniProt O14746); experiment: Inhibition of human TERT expressed in human MGC803 cells assessed as TERT-regulated Wnt/beta-catenin signalling by measuring decrease in c-myc mRNA expression after 48 hrs by RT-PCR method; format: cell-based; settings: MGC-803
[26] = biological target: Telomerase reverse transcriptase (Homo sapiens) (UniProt O14746); experiment: Inhibition of human TERT expressed in human MGC803 cells assessed as TERT-regulated Wnt/beta-catenin signalling by measuring decrease in cyclin D1 mRNA expression after 48 hrs by RT-PCR method; format: cell-based; settings: MGC-803
[27] = Inhibition of human TERT mRNA expression in human MGC803 cells at 40 umol/L measured at 48 hrs by RT-PCR method; format: functional, cell-based; settings: MGC-803
[28] = biological target: Telomerase reverse transcriptase (Homo sapiens) (UniProt O14746); experiment: Inhibition of human TERT-regulated Wnt/beta-catenin signalling in human MGC803 cells assessed as decrease in beta-catenin mRNA expression at 40 umol/L measured at 48 hrs by RT-PCR method; format: cell-based; settings: MGC-803
[29] = biological target: Telomerase reverse transcriptase (Homo sapiens) (UniProt O14746); experiment: Inhibition of human TERT-regulated Wnt/beta-catenin signalling in human MGC803 cells assessed as decrease in cyclin D1 mRNA expression at 40 umol/L measured at 48 hrs by RT-PCR method; format: cell-based; settings: MGC-803
[30] = biological target: Telomerase reverse transcriptase (Homo sapiens) (UniProt O14746); experiment: Inhibition of human TERT-regulated Wnt/beta-catenin signalling in human MGC803 cells assessed as decrease in c-myc mRNA expression at 40 umol/L measured at 48 hrs by RT-PCR method; format: cell-based; settings: MGC-803
[31] = biological target: Telomerase reverse transcriptase (Homo sapiens) (UniProt O14746); experiment: Inhibition of human TERT-regulated Wnt/beta-catenin signalling in human MGC803 cells assessed as decrease in c-myc protein expression at 40 umol/L measured at 48 hrs by Western blotting method; format: cell-based; settings: MGC-803
[32] = biological target: Telomerase reverse transcriptase (Homo sapiens) (UniProt O14746); experiment: Inhibition of human TERT-regulated Wnt/beta-catenin signalling in human MGC803 cells assessed as decrease in cyclin D1 protein expression at 40 umol/L measured at 48 hrs by Western blotting method; format: cell-based; settings: MGC-803
[33] = biological target: Telomerase reverse transcriptase (Homo sapiens) (UniProt O14746); experiment: Inhibition of human TERT-regulated Wnt/beta-catenin signalling in human MGC803 cells assessed as decrease in beta-catenin protein expression at 40 umol/L measured at 48 hrs by Western blotting method; format: cell-based; settings: MGC-803
[34] = biological target: Telomerase reverse transcriptase (Homo sapiens) (UniProt O14746); experiment: Inhibition of human TERT protein expression in human MGC803 cells at 40 umol/L measured at 48 hrs by Western blotting method; format: cell-based; settings: MGC-803

COc1cccc2c1C(=O)c1c(O)c3c(c(O)c1C2=O)C[C@@](O)(C(=O)CO)C[C@@H]3O[C@H]1C[C@H](N)[C@H](O)[C@H](C)O1 [DOXORUBICIN] gave a pIC50 [1] of 6.10, a pIC50 (Bcap37) of 5.92 and a pIC50 [2] of 6.00. It also gave a pIC50 [3] of 5.83.

With Cc1cn([C@H]2C[C@H](N=[N+]=[N-])[C@@H](CO)O2)c(=O)[nH]c1=O the inhibition [4] was “Active”, the inhibition [5] was “Active” and the inhibition [6] was “Active”. For the same compound, the inhibition [7] was “Active”, the inhibition [8] was “Active” and the inhibition [9] was “Active”. The inhibition [10] was “Active” and the inhibition [11] was “Active”.

For O=C(CN1CCCCC1)N1N=C(c2ccccc2)CC1c1cc2ccccc2oc1=O (stereo not given), the Activity (MGC-803) was 50.6%, the inhibition [12] was “Active” and the pIC50 [1] was 6.34. The pIC50 (Bcap37) was 5.28, the pIC50 [2] was 5.85 and the pIC50 [3] was 5.39. For the same compound, the pIC50 [13] was 2.64, the pIC50 [14] was 2.60 and the inhibition [15] was “Active”. For the same compound, the inhibition [16] was “Active”, the inhibition [17] was “Active” and the inhibition [18] was “Active”. The inhibition [19] was “Active”, the inhibition [20] was “Active” and the inhibition [21] was “Active”. The inhibition [22] was “Active”, the inhibition [23] was “Active” and the inhibition [24] was “Active”. For the same compound, the inhibition [25] was “Active” and the inhibition [26] was “Active”.

For CCc1ccc(-c2nc(CSCC(=O)NCCc3ccccc3)c(C)o2)cc1, the inhibition [27] was “Active”, the inhibition [28] was “Active” and the inhibition [29] was “Active”. For the same compound, the inhibition [30] was “Active”, the inhibition [31] was “Active” and the inhibition [32] was “Active”. For the same compound, the inhibition [33] was “Active” and the inhibition [34] was “Active”.
